This is an account of results in US20070117852A1, “(Hetero)cyclyl carboxanilides for controlling harmful fungi” (priority 2003, published 2007).

The subject of this assay is brown rust of wheat (Puccinia recondita). The assay can be described thus: Protective treatment against brown rust of wheat (plants sprayed the day before inoculation). Format: in vivo, Puccinia recondita on wheat seedlings cultivar "Kanzler". Particulars: 63 ppm active compound, assessed visually after a further 7 days in greenhouse, untreated 90. As to the method: The active compounds were prepared as a stock solution comprising 0.25% by weight of active compound in acetone or dimethyl sulfoxide (DMSO). 1% by weight of the emulsifier Uniperol® EL (wetting agent having emulsifying and dispersant action based 10 on ethoxylated alkylphenols) was added to this solution, and the mixture was diluted with water to the desired concentration.
Leaves of potted wheat seedlings of the cultivar “Kanzler” were sprayed to runoff point with an aqueous suspension having the concentration of active compound stated below. The next day, the treated plants were dusted with spores of brown rust of wheat (Puccinia recondita). The plants were then placed in a chamber with high atmospheric humidity (90 to 95%), at 20-22° C., for 24 hours. During this time, the spores germinated and the germinal tubes penetrated into the leaf tissue. The next day, the test plants were returned into the greenhouse and cultivated at temperatures between 20 and 22° C. and at 65 to 70% relative atmospheric humidity for a further 7 days. The extent of the rust development on the leaves was then determined visually.

`CC(=NOCc1ccccc1)C(C)Oc1ccccc1NC(=O)c1cccnc1Cl` (stereo not shown) [IA-1, 2-Chloro-N-(2-(2-benzyloxyimino-1-methyl-n-propoxy)phenyl)nicotinamide]: the “Infection at 63 ppm (% of leaf area)” value was 10 % of leaf area.
